Reference: patent US10801023B2, “Methods of identifying biologically active random peptides in plants and libraries of plants expressing candidate biologically active random peptides” (University of Florida Research Foundation, Inc., priority 2015, dated 2020)

Assays:
[1] = test system: Arabidopsis thaliana plants; assay: Screening of library of transformed plants expressing candidate BARPs for new phenotypes; format: in vivo; details: transgenic Arabidopsis thaliana expressing the BARP, scored from emergence to senescence
Excerpt: In the present example, the methods of the present disclosure were used to generate a library of test nucleic acids encoding a plurality of candidate BARPs, each having a core 6 amino acid random peptide sequence flanked by two cysteine residues. The sequences were also flanked by start and stop codons and Gateway® sequences, such as illustrated in FIG. 1. PCR was used with primers corresponding to the known Gateway flanking sequences to generate the test nucleic acid library. The oligonucleotides were then cloned into bacterial vectors including genes for kanamycin resistance to create a recombination vector library. The vectors were then moved to Agrobacterium tumefaciens strain […] and used to transform Arabidopsis thaliana plants. Seeds were collected from the transformed plants and used to grow new plants. These plants were observed from seedling through the plant lifecycle and observed for new phenotypes. Several new phenotypes emerged, DNA was extracted from the plants displaying new phenotypes, and the sequence of the candidate BARP from the plants was determined. The procedures and results are described in detail below.
The test nucleic acid sequences were synthesized using conserved initiator and terminator sequences flanking 18 random nucleotides, which provides a peptide that is ten amino acids long, with six of the core amino acids randomized, following a Met-Ala-Cys and ending with a Cys-term. This template is illustrated in FIG. 1. In the present example, the corresponding nucleic acid sequence was […] (SEQ ID NO: 5; nucleotides 14-46 of SEQ ID NO: 1). The cysteine residues in this case provide potential for formation of disulfide bonds that may impart additional structure to the adjacent amino acid loop. Although in this example 18 random nucleotides (identified as “N” in SEQ ID NOs: 1 and 5) were used, any number may be used, as long as it is a multiple of three.
To construct the library of random-core BARP sequences, the above DNA sequence was synthesized as an oligonucleotide sequence, along with flanking sequences corresponding to the Gateway® recombination sequences. The middle portion of the sequence, represented by “N” in FIG. 1, were randomized nucleotides. Known synthesis techniques were used to build the sequences, resulting in a library of PCR products containing test nucleic acid sequences (start codon, spacer codon, cysteine codon, 18 random nucleotides encoding a core candidate BARP sequence, second cysteine codon, and stop codon) flanked by Gateway recombination sequences. Although Gateway® sequences were used in the present examples, other recombination cloning primer sequences could be used or specifically designed.
The library of PCR products containing random test sequences was amplified using PCR based on flanking primers containing Gateway recombination sequences. These reactions produced a population of PCR products each containing the core peptide test sequence flanked by Gateway recombination sequences. These PCR products were introduced to the vector pDONR222 using Gateway recombination, and then transformed into E. coli genotype DH5α. The transformation vector also included the NPTII gene for kanamycin resistance. The E. coli cells were plated on kanamycin plates at low density to obtain single-colony separation. The single colonies each contained a separate plasmid bearing a random peptide sequence.
The colonies were recovered from plates in liquid medium, and the plasmids were isolated. The isolated plasmids represented a library of many independent, random sequences (encoding candidate BARPs) flanked by ‘start’ and ‘stop’ sequences. […]

[2] = test system: Arabidopsis thaliana plants; assay: Independent replication of peptide-induced phenotypes in independent transformant lines; format: in vivo; details: BARP sequence re-introduced into Arabidopsis thaliana
Description: A number of first-transformed generation plants were prepared and phenotypes were observed using the methods described in Example 1, above. In this example some 12-amino-acid-long candidate BARPs were also synthesized and tested. The procedures were the same as for the 6-aa BARPs described in Example 1. These phenotypes were also observed to be stable and inherited in subsequent generations. To verify that the effects observed are due to the expressed peptide and not to other less-likely positional/insertional causes, in this Example, a substantial number of the of the candidate 6 and 12 amino-acid-long BARPs were sequenced and separately transformed into independent plants. […] One microliter was used in a PCR reaction under standard conditions, and using primers corresponding to the attachment (recombinational cloning sequences) of the Gateway vector, the corresponding BARP sequences was amplified. This sequences were then recombined into the pDONR222 vector and then re-ligated into the binary pKWDG2 over-expression vector as described above. This sequence was then re-introduced into Arabidopsis thaliana plants using the floral dipping strategy and selection as noted above. The seedlings were then analyzed for the phenotype as defined by the original transformant. Recapitulation of the phenotype in multiple, independent transformation events provided high evidence of a specific physiological effect of the peptide.

[3] = test system: Arabidopsis thaliana plants; assay: Quantitative analysis of flowering time of CBF6AA-15 transformant lines; format: in vivo; details: lines 26, 29, 31 versus wild type Col-0
Excerpt: FIG. 4A is a digital image comparing a wild type A. thaliana plant with 3 separate lines transformed with the 6AA-15 BARP. A bar graph comparing the number of rosette leaves for each line at the time of flowering is illustrated in FIG. 4B. FIGS. 4C-4F are a series of graphs illustrating quantitative analysis of flowering time for the plant lines illustrated in FIG. 4A, with a minimum of 113 plants analyzed per line.
The observed phenotype was also confirmed by the observed number of rosette leaves present on the plant at the time of flowering, where transformants flowered days earlier and after producing fewer leaves. […] A minimum of 113 plants were analyzed per line, and the number of days until flowering was recorded. FIGS. 4C-4F illustrate the distribution of flowering times of wild type plants vs. the three transformant lines, with the mean shifting from 36 days in wild-type plants to […] in the transgenic lines.

Arabidopsis plants [4] = assay: Plant growth and phenotyping of PEP6 / PEP12 transgenic plants; format: in vivo, Arabidopsis thaliana; details: transgenic plant in soil; normal-sized plants 25 mm to 30 mm
Excerpt: Two libraries encoding six- and twelve-random amino acid cyclized peptides (denoted PEP6 and PEP12, respectively) were constructed in binary vectors (as illustrated in FIG. 9) using a Gateway cloning strategy and transformed into Arabidopsis. More than 1,500 transgenic plants with the PEP6 T-DNA inserts were isolated and more than 600 transgenic plants were isolated carrying the PEP12 insert, representing a survival ratio of 1.8% and 1.2% respectively under kanamycin selection. To ensure library representation in the population, DNA was prepared from at least fifty transgenic plants, including ten that had small rosette diameter (5 mm to 10 mm) (e.g., those having BARP sequences SEQ ID NO: 14, 16, 6, 19, 21, 23, 26, 28, 30, and 32) compared to normal-sized plants (25 mm to 30 mm; see Table 2). The nucleotide sequences of all amplified random peptide open reading frames (rpORFs) were different, indicating representation of library diversity was maintained throughout the cloning and transformation process. Several phenotypes were visually apparent. […] Some plants showing multiple growth defects were recorded in each phenotype. Bolting plants with multiple inflorescences were transformed with the PEP6 or PEP12 destination library through the floral dipping method (Clough and Bent, 1998, incorporated herein by reference). For selection, seeds were surface sterilized by 70% ethanol for 5 min and 10% bleach for 20 min. Surface-sterilized seeds were plated on ½× MS basal medium with 0.5% Phyto Agar (cat. # M10200 and # A20300, Research Products International) and 50 μg/ml kanamycin for selection. Transgenic seedlings were identified by GFP expression or resistance to kanamycin. Transformed seedlings were grown to the 3-5 true leaf stage on plates and transferred to soil. DNA was extracted from each seedling (Edwards et al., 1991 incorporated herein by reference) for inserted nucleotide sequence identification. An approximately 500 bp DNA fragment containing the random peptide ORF and part of pK7WG2D vector sequence was amplified using primers PEP-F and PEP-R (SEQ ID NOs: 35 and 36, respectively) listed in Table 4 and sequenced. Arabidopsis plants were grown in soil at 20° C. under 16 hour light/8 hour dark conditions. The characterization of phenotypic variations was based on the comparison among seedlings grown in the same pot or flat.

Arabidopsis plants [5] = assay: Flowering time measurement; format: in vivo, Arabidopsis thaliana
Excerpt: The rpORF were cloned from this seedling PEP6-15 and retransformed into Col-0. A total of 15 independent transgenic lines were isolated and measured on their flowering time. About 75% independent lines had earlier flowering time compared to wild type plants. Thereafter three representative lines 1, 2 and 3, were chosen for detailed analyses (FIG. 11A). […] Thus, the BARP for PEP6-15 (SEQ ID NO: 6, nucleotide sequence SEQ ID NO: 17) appears to produce an earlier flowering time phenotype. […] Three independent PEP6-15 transgenic lines with no transgene segregation were grown directly in soil for the measurement of flowering time. Every line was planted in three 10 cm×10 cm×11 cm pots, and approximately twenty seeds were sown in each pot. The flowering time was recorded as the number of rosette leaves when the inflorescence stem was 0.5-1 cm long. When the majority of plants had flowered, measurement was concluded.

Arabidopsis seedlings = assay: Effects of lethal sequences: growth of PEP6-3 seedlings with or without sucrose; format: in vivo, Arabidopsis thaliana
Excerpt: If these seedlings were transplanted to media supplemented with 2% sucrose some of them survived. These surviving seedlings were genotyped. One of these seedlings grew on a sucrose plate for one month and in soil for another 2 months before bolting and setting seeds. The rpORF was re-cloned and transformed into Col-0 Arabidopsis to generate independent transformation lines. […] The T2 seeds from the original line and 5 independent lines were sown on a ½ MS plate with or without sucrose under kanamycin selection. Seeds on both types of media germinated at a rate of 95%. […] The effect of the peptide was tested in petunia. […] Thus, the BARP for PEP6-3 (SEQ ID NO: 14, nucleotide sequence SEQ ID NO: 13) appears to produce phenotype that requires sucrose media.
It is possible that the phenotypes observed were not related to the peptide sequence, but instead were artifacts of T-DNA integration, since insertion of the CaMV35S-bearing T-DNA cassette could potentially disrupt a gene where an effect could be observed in its heterozygous form, or the viral promoter could activate expression of neighboring genes, resulting in an observable phenotype. Thus, to generate a series of independent transformants for each sequence of interest, the random peptide ORFs from transgenic plants showing aberrant phenotypes were amplified using attB universal adaptor primers, and cloned into pDONR222 and pK7WG2D vectors via BP and LR reactions, respectively. These constructs were then transformed into Arabidopsis to generate additional independent transgenic lines. Each series of independent transgenic lines containing the same random peptide ORF were grown under the same conditions used to produce the original phenotype. Transcript abundance of the random peptide ORF and the control gene Ubiquitin family protein (UFP, At4g01000) in every transgenic line was analyzed by semi-quantitative RT-PCR using attB1 and attB2 adaptor primers or UFP-rF and -rR primers (SEQ ID NOs: 37-38), respectively.
The seedling was moved to media containing sucrose where it then developed normally. Five independent lines (1, 2, 3, 4 and 6) containing the PEP6-3 sequence (SEQ ID NO: 13) were grown under kanamycin selection on ½ MS medium with or without the supplement of 2% sucrose in dark for the first 7 d and then exposed to light. Without sucrose, some seedlings with only the two cotyledons or the first two true leaves died eventually, and only a few seedlings fully developed. The proportion of seedlings developed with the first two true leaves or fully developed was recorded.

Petunia hybrida = assay: Petunia transformation with PEP6-3; format: in vivo; details: five independent transgenic shoots, versus controls
Description: PEPS-3 was introduced into Petunia hybrida by Agrobacterium tumefaciens-mediated transformation of leaf fragments, following a modified protocol by Jorgensen et al, (1996), incorporated herein by reference. Leaves were dissected into 4×5 mm fragments and immersed in Agrobacterium solution for 15 min, then transferred to MS agar plates supplemented with TDZ (1 μg/mL), galacturonic add (212 μg/mL) and acetosyringone (8 μg/mL). After 2 d in darkness, explants were transferred to MS medium containing TDZ (1 μg/mL), carbenicillin (500 μg/mL) and kanamycin (150 μg/mL) for two weeks. Callusing explants were then transferred to light on MS medium containing only antibiotics. After the appearance of shoots, these were transferred to MS medium containing antibiotics and IBA (0.8 μg/mL), for root formation.

[6] = ½ MS plate without sucrose, kanamycin selection, T2 seeds

| Sequence | phenotype [1] | phenotype in independent transformant lines [2] | number of rosette leaves at the time of flowering [3] | rosette size (Arabidopsis plants [4]) [mm] | bolting earlier than Col-0 (Arabidopsis plants [5]; lines 1, 2 and 3, inferred from rosette leaf number) [days] | number of rosette leaves when bolting (Arabidopsis plants [5]; lines 1, 2 and 3, 16 hour light/8 hour dark, Col-0 11.5) [rosette leaves] | size of independent transgenic lines (Arabidopsis seedlings; 20 independent transgenic lines versus control lines) | development of germinated seeds on sucrose plates (Arabidopsis seedlings; ½ MS plate with 2% sucrose) | germination rate (Arabidopsis seedlings; ½ MS plate with or without sucrose (both types of media)) [%] | transgenic seedlings forming true leaves (Arabidopsis seedlings; [6]) [%] | transgenic seedlings growing into fully-developed plants (Arabidopsis seedlings; [6]) [%] | growth of transgenic petunia shoots (Petunia hybrida) |
| --- | --- | --- | --- | --- | --- | --- | --- | --- | --- | --- | --- | --- |
| MACDFNFGIC (chemically synthesized peptide sequence of BARP CBF6AA-15 associated with early flowering behavior) | tiny, slightly early flowering | significant early-flowering phenotype | fewer number of leaves at the time of flowering than the wild type | 5 | 3 to 4 | 10 | – | – | – | – | – | – |
| MACRGVDSAC (chemically synthesized peptide sequence of BARP PEP6-3) [BARP producing sucrose dependent phenotype] | – | – | – | 5 | – | – | grew smaller than control lines | grew into fully-developed plants | 95 | < 30 | < 10 | grew slowly compared to controls before turning pale and dying after several weeks |
